Columns and labels:
[1] = system: HeLa cervical cancer cells; assay: Binding of Cy5-labeled oligonucleotide to HeLa cells, flow cytometer; format: cell-based; conditions: 500 nM Cy5-labeled, 1.5 h
Protocol: When AS1411 was selected as the GRO, the model analysis for AS1411 as the novel recruitment element of MDM2 and a PROTAC constructed by using AS1411 as the novel recruitment element of MDM2 was specifically as follows: Since NCL is highly expressed in tumor cells and specifically distributed on the surface of tumor cells, the binding ability of AS1411 to HeLa cervical cancer cells was examined. HeLa cells were incubated with 500 nM CRO (cytosine-rich oligonucleotide, negative control) and AS1411 labeled by Cy5 for 1.5 h. […] AS1411 is set forth in SEQ ID NO: 1, and the sequence of the CRO is set forth in SEQ ID NO: 13.

NCL = NCL (Homo sapiens, UniProt P19338); assay: Biotin-oligonucleotide pull-down from HeLa cell lysate, western blot (NCL); format: binding; parameters: HeLa cervical cancer cells were lysed with an IP lysis solution; endogenous in cells; host or cells: HeLa cell lysate; conditions: 5′-biotin label, 0 nM-20 μM
Sequence of NCL (P19338 whole entry): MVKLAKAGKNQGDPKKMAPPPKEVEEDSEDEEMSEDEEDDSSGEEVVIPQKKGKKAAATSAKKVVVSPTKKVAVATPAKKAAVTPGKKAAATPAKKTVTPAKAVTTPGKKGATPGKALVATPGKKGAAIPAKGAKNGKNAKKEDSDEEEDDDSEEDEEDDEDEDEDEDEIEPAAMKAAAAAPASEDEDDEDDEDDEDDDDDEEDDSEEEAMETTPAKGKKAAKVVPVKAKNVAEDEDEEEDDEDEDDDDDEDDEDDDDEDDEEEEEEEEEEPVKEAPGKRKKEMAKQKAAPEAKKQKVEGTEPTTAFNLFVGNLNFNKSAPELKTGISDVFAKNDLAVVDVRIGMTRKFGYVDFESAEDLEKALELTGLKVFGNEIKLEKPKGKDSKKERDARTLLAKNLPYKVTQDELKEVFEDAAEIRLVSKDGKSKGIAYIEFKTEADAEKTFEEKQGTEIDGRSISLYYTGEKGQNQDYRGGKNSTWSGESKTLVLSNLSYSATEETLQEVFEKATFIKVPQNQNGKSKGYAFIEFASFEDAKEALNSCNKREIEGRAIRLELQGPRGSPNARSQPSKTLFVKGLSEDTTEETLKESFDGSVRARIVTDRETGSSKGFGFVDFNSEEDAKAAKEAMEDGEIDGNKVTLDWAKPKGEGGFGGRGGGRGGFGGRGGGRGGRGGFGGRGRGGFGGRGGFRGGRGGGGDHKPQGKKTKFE
Protocol: HeLa cervical cancer cells were lysed with an IP lysis solution (purchased from Thermo Scientific, Cat. No.: 87788) and then incubated with a CRO (cytosine-rich oligonucleotide, negative control, SEQ ID NO: 13), AS1411, or iSN04 labeled by biotin at the 5′ end at different concentrations (0 nM, 200 nM, 500 nM, 1 μM, 5 μM, 10 μM, and 20 μM) at 4° C. for 6h. Subsequently, streptavidin agarose gel beads (purchased from cytiva, Cat. No.: 17511301) were added, and the mixture was further incubated at 4° C. overnight. After the bound biotin-labeled CRO, AS411, or iSN04 and its captured proteins on the gel beads were washed multiple times with an IP lysis buffer (purchased from Thermo Scientific, Cat. No.: 87788), an SDS-PAGE protein loading buffer (purchased from Beyotime, Cat. No.: P0015) was added, and the mixture was heated to 100° C. and held for 10 min. After centrifugation, the supernatant was collected as a pull-down product. The pull-down product was detected by western blot assay.

[2] = molecular target: T1, interaction between NCL and MDM2 (Homo sapiens, UniProt P19338); assay: Co-immunoprecipitation of NCL and MDM2 from HeLa cell lysate, western blot; format: binding; conditions: 0-20 μM, 4° C. 6 h, IP with antibody against NCL
T1 construct: HeLa cervical cancer cells were lysed with an IP lysis solution; endogenous in cells; host or cells: HeLa cell lysate
T1 sequence (P19338 2-710 limits assumed): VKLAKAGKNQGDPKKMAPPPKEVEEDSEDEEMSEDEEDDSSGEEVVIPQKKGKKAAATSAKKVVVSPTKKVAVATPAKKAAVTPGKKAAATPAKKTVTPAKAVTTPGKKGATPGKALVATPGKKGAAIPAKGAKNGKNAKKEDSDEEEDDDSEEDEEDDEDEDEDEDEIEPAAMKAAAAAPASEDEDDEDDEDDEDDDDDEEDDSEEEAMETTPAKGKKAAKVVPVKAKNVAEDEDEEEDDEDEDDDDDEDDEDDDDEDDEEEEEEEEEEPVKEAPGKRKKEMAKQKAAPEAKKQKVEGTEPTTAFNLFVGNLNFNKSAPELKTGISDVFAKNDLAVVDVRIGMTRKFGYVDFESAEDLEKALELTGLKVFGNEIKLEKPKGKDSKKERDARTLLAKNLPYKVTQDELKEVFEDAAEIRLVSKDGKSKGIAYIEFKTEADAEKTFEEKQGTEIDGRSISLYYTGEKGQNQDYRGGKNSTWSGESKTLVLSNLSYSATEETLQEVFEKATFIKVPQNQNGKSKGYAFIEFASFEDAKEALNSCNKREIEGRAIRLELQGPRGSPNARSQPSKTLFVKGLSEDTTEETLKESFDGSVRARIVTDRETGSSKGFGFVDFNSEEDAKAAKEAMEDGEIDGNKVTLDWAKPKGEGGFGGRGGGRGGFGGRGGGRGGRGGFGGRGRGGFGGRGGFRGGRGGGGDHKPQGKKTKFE
Protocol: Co-immunoprecipitation (Co-IP) is a classical method for the study of protein interactions based on the specific interaction between an antibody and an antigen. It is an effective method to determine the physiological interaction between two proteins in intact cells.
HeLa cervical cancer cells were lysed with an IP lysis solution (purchased from Thermo Scientific, Cat. No.: 87788) and then incubated with AS 1411 or iSN04 at different concentrations (0 μM, 1 μM, 5 μM, 10 μM, and 20 μM) at 4° C. for 6 h. Subsequently, […] of an antibody against NCL was added, and the mixture was further incubated at 4° C. overnight. Protein A/G magnetic beads (purchased from Thermo Scientific, Cat. No.: 88802) were added, and the mixture was incubated with rotation at room temperature for 1.5 h. The bound NCL and its interacting proteins on the magnetic beads were washed with an IP lysis buffer (purchased from Thermo Scientific, Cat. No.: 87788), and an SDS-PAGE protein loading buffer (purchased from Beyotime, Cat. No.: P0015) was added. The mixture was heated to 100° C. and held for 10 min. The magnetic beads were adsorbed on a magnetic rack, and the supernatant was transferred into a new tube. Subsequently, western blot assay was performed to detect whether NCL bound to MDM2 and whether the binding was affected by AS 1411 or iSN04. […]

AS1411: DNA aptamer, GRO binding NCL, SEQ ID NO: 1: 5′-GGTGGTGGTGGTTGTGGTGGTGGTGG-3′
binding ability to HeLa cells [1]: can significantly bind to HeLa cells
capture of NCL (NCL): can capture NCL and MDM2 in a concentration-dependent manner
effect on the interaction between NCL and MDM2 [2]: does not affect the interaction between NCL and MDM2

From patent US20260256923A1, “NEW RECRUITMENT ELEMENT OF UBIQUITIN LIGASE AND USE THEREOF” (SHENZHEN LINGGENE BIOTECH CO., LTD., priority 2023, published 2026)
